Here are results for two molecules from article PMC9304723 (Heliyon, 2022).

In assay [1] the target is P-glycoprotein (Pgp) (Homo sapiens, UniProt P08183). The assay can be described thus: Caco-2 transport of CA with Pgp inhibitor GF120918. Format: in vitro ADME. The settings on record: 2 μM GF120918. A general note: Passage across Caco-2 layers is used to estimate intestinal permeability.
Assay [2] addresses T1, OATP2B1 (Homo sapiens, UniProt O94956).
T1 sequence (O94956 1-709): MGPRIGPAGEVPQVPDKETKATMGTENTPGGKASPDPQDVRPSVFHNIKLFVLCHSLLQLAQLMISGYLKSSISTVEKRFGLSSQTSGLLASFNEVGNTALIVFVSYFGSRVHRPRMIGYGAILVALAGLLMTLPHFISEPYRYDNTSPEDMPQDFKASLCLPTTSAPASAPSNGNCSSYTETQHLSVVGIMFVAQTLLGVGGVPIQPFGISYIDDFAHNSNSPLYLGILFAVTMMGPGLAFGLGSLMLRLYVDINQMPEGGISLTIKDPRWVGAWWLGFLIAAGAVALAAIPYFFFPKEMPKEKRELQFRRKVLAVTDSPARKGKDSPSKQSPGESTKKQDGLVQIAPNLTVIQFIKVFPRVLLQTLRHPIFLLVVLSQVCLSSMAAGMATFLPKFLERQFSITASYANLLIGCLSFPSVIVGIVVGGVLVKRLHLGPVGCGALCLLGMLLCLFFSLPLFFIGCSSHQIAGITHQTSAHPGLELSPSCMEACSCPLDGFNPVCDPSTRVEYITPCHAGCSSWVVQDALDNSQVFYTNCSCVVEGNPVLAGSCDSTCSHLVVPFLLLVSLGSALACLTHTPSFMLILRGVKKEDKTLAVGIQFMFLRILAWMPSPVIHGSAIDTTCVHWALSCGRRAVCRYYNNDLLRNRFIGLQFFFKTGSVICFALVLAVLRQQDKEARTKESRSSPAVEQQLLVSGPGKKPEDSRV
The assay can be described thus: Caco-2 transport of CA with OATP2B1 inhibitor baicalin. The format is in vitro ADME. The settings on record: 6 μM baicalin.

The target of assay [3] is T1, OATP2B1. Conditions: read-out: IC50, reduction of influx of substrates of OATP2B1; cited from earlier work.

Sequence of P-glycoprotein (Pgp) (P08183 whole entry): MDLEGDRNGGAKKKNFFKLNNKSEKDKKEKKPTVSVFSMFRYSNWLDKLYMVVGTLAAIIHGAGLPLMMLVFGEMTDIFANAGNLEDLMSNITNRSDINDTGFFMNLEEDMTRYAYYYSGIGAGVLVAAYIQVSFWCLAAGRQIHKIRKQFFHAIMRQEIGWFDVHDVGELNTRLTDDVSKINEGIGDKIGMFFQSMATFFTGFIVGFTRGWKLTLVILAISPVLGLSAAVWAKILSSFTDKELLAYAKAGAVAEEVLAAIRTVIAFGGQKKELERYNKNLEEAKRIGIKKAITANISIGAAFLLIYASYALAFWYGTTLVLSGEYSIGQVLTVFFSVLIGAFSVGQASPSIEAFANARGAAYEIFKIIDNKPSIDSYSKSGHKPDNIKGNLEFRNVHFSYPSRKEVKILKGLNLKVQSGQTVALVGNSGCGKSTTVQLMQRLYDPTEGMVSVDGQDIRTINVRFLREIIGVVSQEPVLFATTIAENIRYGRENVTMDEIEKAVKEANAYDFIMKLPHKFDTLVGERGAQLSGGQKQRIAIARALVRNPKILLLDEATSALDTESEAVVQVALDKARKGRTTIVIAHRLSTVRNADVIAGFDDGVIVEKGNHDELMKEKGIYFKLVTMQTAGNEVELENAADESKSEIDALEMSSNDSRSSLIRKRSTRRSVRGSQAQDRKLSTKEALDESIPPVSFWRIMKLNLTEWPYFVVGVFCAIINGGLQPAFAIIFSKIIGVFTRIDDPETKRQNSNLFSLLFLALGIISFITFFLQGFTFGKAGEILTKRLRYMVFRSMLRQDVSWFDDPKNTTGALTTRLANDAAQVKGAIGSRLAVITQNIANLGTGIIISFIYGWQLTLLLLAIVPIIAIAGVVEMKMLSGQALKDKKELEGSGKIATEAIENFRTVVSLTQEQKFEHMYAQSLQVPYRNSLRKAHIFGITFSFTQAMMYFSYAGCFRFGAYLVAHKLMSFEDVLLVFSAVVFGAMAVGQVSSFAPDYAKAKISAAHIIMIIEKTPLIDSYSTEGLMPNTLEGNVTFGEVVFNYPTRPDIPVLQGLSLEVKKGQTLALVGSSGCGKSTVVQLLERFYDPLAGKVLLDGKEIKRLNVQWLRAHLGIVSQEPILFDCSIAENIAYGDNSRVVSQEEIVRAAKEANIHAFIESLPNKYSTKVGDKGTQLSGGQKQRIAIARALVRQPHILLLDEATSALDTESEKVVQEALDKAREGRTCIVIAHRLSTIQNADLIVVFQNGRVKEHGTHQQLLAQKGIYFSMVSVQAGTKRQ

Regarding Chicoric acid [CA], the “Decrease of Papp B–A after GF120918 treatment” value in assay [1] amounted to 62%. Further, the “Decrease of Papp B–A after baicalin treatment” value in assay [2] worked out at 63%. Broadly, the IC50 is the concentration needed to halve the response being measured. Consider `O=C(O)[C@H]1O[C@@H](Oc2cc3oc(-c4ccccc4)cc(=O)c3c(O)c2O)[C@H](O)[C@@H](O)[C@@H]1O` [baicalin], for which, in assay [3], the IC50 was 5.6 ± 3.2 µM.
